What is called IC50 is the concentration at which inhibition is half-maximal.

One assay deals with MCF-7 cells. The experiment in a line: Cell proliferation, microtiter plate assay (Cell Titer 96), MCF-7. As to conditions: Homo sapiens, MCF7, read-out: IC50 in μM for the growth inhibition of MCF-7 cells. The assay is classed as cell-based. On the procedure: The effect of drugs on the proliferation of cells was measured using a microtiter plate assay (Cell Titer 96 proliferation assay, Promega, Hampshire, UK).
For `CCOC(=O)/C=C1\CCC2C3CCc4cc(OS(N)(=O)=O)c(CC)cc4C3CC[C@]12C` (stereo in doubt) [Compound 15, (2-Ethyl-13-methyl-3-sulfamoyloxy-6,7,8,9,11,12,13,14,15,16-decahydro-cyclopenta[a]phenanthren-17-ylidene)-acetic acid ethyl ester], the IC50 was found to be 1.85 µM.

As for `CCOC(=O)C[C@H]1CCC2C3CCc4cc(O)c(CC)cc4C3CC[C@@]21C` (stereo in doubt) [Compound 22, (2-Ethyl-3-hydroxy-13-methyl-7,8,9,11,12,13,14,15,16,17-decahydro-6H-cyclopenta[a]phenanthren-17-yl)-acetic acid ethyl ester], the IC50 amounted to 26.4 µM.

With `CCOC(=O)C[C@H]1CCC2C3CCc4cc(OS(N)(=O)=O)c(CC)cc4C3CC[C@@]21C` (stereo in doubt) [Compound 23, (2-Ethyl-13-methyl-3-sulfamoyloxy-7,8,9,11,12,13,14,15,16,17-decahydro-6H-cyclopenta[a]phenanthren-17-yl)-acetic acid ethyl ester], the IC50 is 4.19 µM.

Regarding `CCOC(=O)/C=C1/CCC2C3CCc4cc(O)c(CC)cc4C3CC[C@]12C` (stereo partly drawn) [Compound 14a, Z- and E-(2-Ethyl-3-hydroxy-13-methyl-6,7,8,9,11,12,13,14,15,16-decahydro-cyclopenta[a]phenanthren-17-ylidene)acetic acid ethyl ester], the IC50 turned out to be 30.6 µM.

In the case of `CCOC(=O)/C=C1\CCC2C3CCc4cc(O)c(CC)cc4C3CC[C@]12C` (stereo partly drawn) [Compound 14b, Z- and E-(2-Ethyl-3-hydroxy-13-methyl-6,7,8,9,11,12,13,14,15,16-decahydro-cyclopenta[a]phenanthren-17-ylidene)acetic acid ethyl ester], the IC50 amounted to 31.1 µM.

Turning to `CCc1cc2c(cc1O)CCC1C2CC[C@]2(C)/C(=C\CO)CCC12` (stereo partly drawn) [Compound 17a, Z- and E-2-Ethyl-17-(2-hydroxy-ethylidene)-13-methyl-7,8,9,11,12,13,14,15,16,17-decahydro-6H-cyclopenta[a]phenanthren-3-ol], the 50% inhibitory concentration (IC50) amounted to 0.67 µM.

On to `CCc1cc2c(cc1O)CCC1C2CC[C@]2(C)/C(=C/CO)CCC12` (stereo partly drawn) [Compound 17b, Z- and E-2-Ethyl-17-(2-hydroxy-ethylidene)-13-methyl-7,8,9,11,12,13,14,15,16,17-decahydro-6H-cyclopenta[a]phenanthren-3-ol], for which the IC50 was found to be 0.77 µM.

As to `CCc1cc2c(cc1O)CCC1C2CC[C@@]2(C)C1CC[C@@H]2CCO` (stereo partly drawn) [Compound 19, 2-Ethyl-17-(2-hydroxy-ethyl)-13-methyl-7,8,9,11,12,13,14,15,16,17-decahydro-6H-cyclopenta[a]phenanthren-3-ol], the IC50 was found to be 2.52 µM.

As to `CCc1cc2c(cc1OS(N)(=O)=O)CCC1C2CC[C@@]2(C)C1CC[C@@H]2CCOS(N)(=O)=O` (stereo partly drawn) [Compound 20, Sulfamic acid 2-ethyl-13-methyl-17-(2-sulfamoyloxy-ethyl)-7,8,9,11,12,13,14,15,16,17-decahydro-6H-cyclopenta[a]phenanthren-3-yl ester], the IC50 was determined as 5.64 µM.

With `CCc1cc2c(cc1O)CCC1C2CC[C@@]2(C)C1CC[C@@H]2CC#N` (stereo partly drawn) [Compound 27, (2-Ethyl-3-hydroxy-13-methyl-7,8,9,11,12,13,14,15,16,17-decahydro-6H-cyclopenta[a]phenanthren-17-yl)-acetonitrile], the IC50 was determined as 3.24 µM.

For the compound `COc1cc2c(cc1O)CCC1C2CC[C@@]2(C)C1CC[C@@H]2NCCN(C)C` (stereo partly drawn) [Compound 36, 17-(2-Dimethylamino-ethylamino)-2-methoxy-13-methyl-7,8,9,11,12,13,14,15,16,17-decahydro-6H-cyclopenta[a]phenanthren-3-ol], the IC50 was 3.25 µM.

Staying with this assay, now noted: read-out: IC50 in μM for the growth inhibition of MCF-7 cells.
In the case of `COc1cc2c(cc1O)CCC1C2CCC2(C)C(=CC#N)CCC12` (stereo not drawn) [Compound 30, Z- and E-(3-Hydroxy-2-methoxy-13-methyl-6,7,8,9,11,12,13,14,15,16-decahydro-cyclopenta[a]phenanthren-17-ylidene)-acetonitrile], the IC50 is 3.22 µM.

(Values after US7893284B2 (Sterix Limited, priority 2004, dated 2011).)
